Each structure is given as a SMILES string.

A word on the Ki: it is the equilibrium dissociation constant of an inhibitor or competing ligand from its target. The term IC50 denotes the point on the concentration scale where inhibition reaches its midpoint. Usually EC50 stands for the concentration needed to bring the measured effect to its halfway point. Broadly, the half-life is the time needed for the level to fall by half in the phase considered. One may read the bioavailability as the share of a dose that reaches the circulation, judged against a reference dose that is usually intravenous.

For data set [1], the target named is T1, Arginase-2, mitochondrial (Homo sapiens, UniProt P78540).
T1 sequence (P78540 whole entry): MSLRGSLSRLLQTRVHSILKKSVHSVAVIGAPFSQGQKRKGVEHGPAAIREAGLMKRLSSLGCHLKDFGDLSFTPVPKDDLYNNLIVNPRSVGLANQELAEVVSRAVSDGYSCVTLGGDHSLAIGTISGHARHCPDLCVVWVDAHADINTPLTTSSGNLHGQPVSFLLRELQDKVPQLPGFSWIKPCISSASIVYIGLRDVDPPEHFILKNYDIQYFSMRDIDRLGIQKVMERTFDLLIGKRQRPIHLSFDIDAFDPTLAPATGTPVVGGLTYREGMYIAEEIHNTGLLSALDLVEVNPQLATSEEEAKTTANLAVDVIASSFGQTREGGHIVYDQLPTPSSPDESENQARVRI
Nature of the data set: Competitive inhibition of human ARG2.

Data set [2] concerns the target Indoleamine 2,3-dioxygenase 1 (Homo sapiens, UniProt P14902). Kind of data set: Inhibition of human IDO1.
The subject of the next data set is Splenocyte. Kind of data set: Antiproliferative activity in mouse splenocyte assessed as inhibition of cell proliferation incubated for 72 hrs by MTT assay. It counts as functional. Also on record: scale not given: the % may be the effect or the level left. Background: Tetrazolium dyes change colour on reduction, which living cells bring about.
In data set [3] the target is Programmed cell death protein 1/Programmed cell death 1 ligand 1 (Homo sapiens, UniProt Q15116+Q9NZQ7). Nature of the data set: Inhibition of PD-1/PD-L1 interaction (unknown origin) incubated for 24 hrs by HTRF assay. In kind it is protein-complex assay.
Programmed cell death protein 1/Programmed cell death 1 ligand 1, sequence (Q15116 whole entry): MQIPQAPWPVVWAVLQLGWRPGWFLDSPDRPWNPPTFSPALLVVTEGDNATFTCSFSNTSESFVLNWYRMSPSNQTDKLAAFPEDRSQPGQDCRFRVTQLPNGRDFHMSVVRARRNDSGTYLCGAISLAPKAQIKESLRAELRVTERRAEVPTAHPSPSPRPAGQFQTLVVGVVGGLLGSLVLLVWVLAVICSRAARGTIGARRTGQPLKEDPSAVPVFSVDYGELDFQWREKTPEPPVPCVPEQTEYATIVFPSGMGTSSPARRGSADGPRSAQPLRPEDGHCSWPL
Programmed cell death protein 1/Programmed cell death 1 ligand 1, sequence (Q9NZQ7 whole entry): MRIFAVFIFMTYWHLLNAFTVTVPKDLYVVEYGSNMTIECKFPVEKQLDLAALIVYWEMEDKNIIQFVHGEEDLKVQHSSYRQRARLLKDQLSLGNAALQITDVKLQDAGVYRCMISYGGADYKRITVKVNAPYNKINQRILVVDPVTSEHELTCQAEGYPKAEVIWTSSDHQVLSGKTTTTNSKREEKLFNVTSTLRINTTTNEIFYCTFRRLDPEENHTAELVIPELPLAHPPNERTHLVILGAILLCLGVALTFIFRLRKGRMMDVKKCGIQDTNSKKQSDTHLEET
The target of data set [4] is T2, Ectonucleoside triphosphate diphosphohydrolase 1 (Homo sapiens, UniProt P49961).
T2 sequence (P49961 whole entry): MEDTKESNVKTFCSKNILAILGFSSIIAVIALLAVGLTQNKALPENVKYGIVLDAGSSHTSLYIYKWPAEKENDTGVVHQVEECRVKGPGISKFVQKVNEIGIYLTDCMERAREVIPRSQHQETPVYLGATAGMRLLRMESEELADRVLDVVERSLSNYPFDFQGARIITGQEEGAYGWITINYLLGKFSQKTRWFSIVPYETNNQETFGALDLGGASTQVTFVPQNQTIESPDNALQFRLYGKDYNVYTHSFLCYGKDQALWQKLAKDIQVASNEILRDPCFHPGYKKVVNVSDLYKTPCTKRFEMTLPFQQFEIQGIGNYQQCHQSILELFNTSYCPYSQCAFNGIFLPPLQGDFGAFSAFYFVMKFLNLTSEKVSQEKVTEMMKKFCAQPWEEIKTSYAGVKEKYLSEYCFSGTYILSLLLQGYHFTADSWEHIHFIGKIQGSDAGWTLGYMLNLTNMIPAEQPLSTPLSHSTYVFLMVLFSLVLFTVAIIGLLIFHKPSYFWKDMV
Kind of data set: Inhibition of human NTPDase1.

The target of another data set is T3, Arginase-1 (Homo sapiens, UniProt P05089).
T3 sequence (P05089 whole entry): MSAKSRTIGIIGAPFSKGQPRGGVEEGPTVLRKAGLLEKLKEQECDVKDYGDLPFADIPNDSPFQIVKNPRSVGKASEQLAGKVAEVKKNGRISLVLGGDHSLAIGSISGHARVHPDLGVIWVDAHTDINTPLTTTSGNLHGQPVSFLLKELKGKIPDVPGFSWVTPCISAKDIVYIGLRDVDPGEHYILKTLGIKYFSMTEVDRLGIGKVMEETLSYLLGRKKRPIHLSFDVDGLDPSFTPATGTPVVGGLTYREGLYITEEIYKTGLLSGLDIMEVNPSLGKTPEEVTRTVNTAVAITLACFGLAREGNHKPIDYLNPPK
Kind of data set: Inhibition of human ARG1.

The target of data set [5] is C-X-C chemokine receptor type 4 (Homo sapiens, UniProt P61073). Nature of the data set: Antagonist activity at CXCR4 receptor in human MIA PaCa-2 cells assessed as reduction in forskolin-stimulated inhibition of cAMP production. It counts as cell-based.
C-X-C chemokine receptor type 4, sequence (P61073 whole entry): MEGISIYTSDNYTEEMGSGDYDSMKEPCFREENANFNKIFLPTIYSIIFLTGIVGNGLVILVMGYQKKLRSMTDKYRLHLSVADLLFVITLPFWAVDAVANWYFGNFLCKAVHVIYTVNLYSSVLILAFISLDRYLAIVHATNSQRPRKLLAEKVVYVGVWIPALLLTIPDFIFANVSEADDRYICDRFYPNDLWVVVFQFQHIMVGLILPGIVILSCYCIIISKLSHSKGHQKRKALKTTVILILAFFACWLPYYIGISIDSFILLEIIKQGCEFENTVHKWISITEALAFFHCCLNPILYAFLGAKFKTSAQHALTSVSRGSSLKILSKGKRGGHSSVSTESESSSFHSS
The next data set concerns MIA PaCa-2. Nature of the data set: Antiproliferative activity against human MIA PaCa-2 cells.
A short description of data set [6]: Half life in mouse at 2000 mg/kg. It counts as ADME, organism-based. The note with it: in vivo.
The target of a further data set is T4, Toll-like receptor 8 (Homo sapiens, UniProt Q9NR97).
T4 sequence (Q9NR97 whole entry): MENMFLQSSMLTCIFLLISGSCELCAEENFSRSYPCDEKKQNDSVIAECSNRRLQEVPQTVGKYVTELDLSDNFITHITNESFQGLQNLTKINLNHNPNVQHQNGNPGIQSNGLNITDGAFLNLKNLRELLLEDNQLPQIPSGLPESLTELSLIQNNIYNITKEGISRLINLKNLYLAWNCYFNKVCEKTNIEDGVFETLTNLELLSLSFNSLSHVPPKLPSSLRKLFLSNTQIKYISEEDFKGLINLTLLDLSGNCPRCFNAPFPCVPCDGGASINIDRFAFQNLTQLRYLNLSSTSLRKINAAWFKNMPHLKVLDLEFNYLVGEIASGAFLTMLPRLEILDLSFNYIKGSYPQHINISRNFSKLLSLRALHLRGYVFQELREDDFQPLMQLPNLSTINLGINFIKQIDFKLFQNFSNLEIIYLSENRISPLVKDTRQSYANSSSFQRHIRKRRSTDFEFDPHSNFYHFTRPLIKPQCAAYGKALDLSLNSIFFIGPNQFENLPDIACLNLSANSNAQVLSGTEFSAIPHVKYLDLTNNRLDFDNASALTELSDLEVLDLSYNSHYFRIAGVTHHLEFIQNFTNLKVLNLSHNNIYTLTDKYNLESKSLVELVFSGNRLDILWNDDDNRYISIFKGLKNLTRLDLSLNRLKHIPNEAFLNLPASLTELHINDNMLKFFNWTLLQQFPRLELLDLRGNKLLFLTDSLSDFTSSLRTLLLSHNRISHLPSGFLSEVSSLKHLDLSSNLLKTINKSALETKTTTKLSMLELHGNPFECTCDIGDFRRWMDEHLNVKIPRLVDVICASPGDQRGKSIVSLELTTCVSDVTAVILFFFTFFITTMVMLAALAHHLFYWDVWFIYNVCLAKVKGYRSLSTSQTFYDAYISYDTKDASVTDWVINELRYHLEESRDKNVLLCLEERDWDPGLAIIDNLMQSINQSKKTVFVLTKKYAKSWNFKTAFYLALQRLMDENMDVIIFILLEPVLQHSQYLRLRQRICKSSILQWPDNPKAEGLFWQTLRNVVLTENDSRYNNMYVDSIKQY
Kind of data set: Agonist activity at human TLR8 expressed in HEK293 cells by reporter gene assay.

Data set [7] in a line: Half life in rat. It counts as ADME. As to conditions: in vivo.
A short description of data set [8]: Oral bioavailability in rat. It counts as ADME, organism-based. As to conditions: in vivo.

Indoleamine 2,3-dioxygenase 1, sequence (P14902 whole entry): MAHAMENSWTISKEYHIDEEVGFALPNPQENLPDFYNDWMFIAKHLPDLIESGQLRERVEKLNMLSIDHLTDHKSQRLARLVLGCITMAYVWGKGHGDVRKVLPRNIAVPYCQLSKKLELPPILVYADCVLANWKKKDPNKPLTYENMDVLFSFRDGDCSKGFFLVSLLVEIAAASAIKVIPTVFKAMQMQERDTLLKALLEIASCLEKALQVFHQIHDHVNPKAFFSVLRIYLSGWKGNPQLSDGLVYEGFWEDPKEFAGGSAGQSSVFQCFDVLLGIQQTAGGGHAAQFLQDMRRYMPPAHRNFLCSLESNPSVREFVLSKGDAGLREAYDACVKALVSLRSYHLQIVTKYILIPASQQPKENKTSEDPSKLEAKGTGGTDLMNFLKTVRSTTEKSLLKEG

Compound `N[C@@H](CSCCB(O)O)C(=O)O` displayed a Ki in data set [1] of 310 nM. With `C[C@@]12CCCCC1=C(O)C(=O)c1cc3c(cc12)C(=O)C1=C(C3=O)S(=O)(=O)CCN1`, in [2], inhibition was half-maximal at 110 nM (IC50). With `NC(=O)C[C@H](N)c1nc([C@@H](N)CO)no1`, the Activity in the data set on Splenocyte came out at 48.4%. `Cc1c(Nc2cccc3cc(CNCCO)cnc23)cccc1-c1ccccc1`: in data set [3], the IC50 was under 10 nM.

For `COc1cc(/C=N/c2nc(-c3cc4ccccc4oc3=O)cs2)cc(OC)c1OC`, the IC50 in [4] was found to be 50 nM. On to `CN[C@@H](CO)C(=O)N1C[C@H](CCCB(O)O)[C@](N)(C(=O)O)C1`, for which the concentration for half-maximal inhibition (IC50) against Arginase-1 was 740 nM. `CCN(CC)CCCC(C)Nc1ccnc2cc(Cl)ccc12` (configuration not stated) [CHLOROQUINE]: the half-maximal effective concentration (EC50) in [5] was determined as 6500 nM. For the same compound, in the data set with MIA PaCa-2, the concentration for half-maximal inhibition (IC50) stood at 3500 nM. Compound `Cn1cc(C[C@@H](N)C(=O)O)c2ccccc21` [INDOXIMOD] showed a half-life in [6] of 10.5 h. Regarding `CCCN(CCC)C(=O)C1=Cc2ccc(-c3ccc(C(=O)N4CCCC4)cc3)cc2N=C(N)C1` [MOTOLIMOD], on Toll-like receptor 8, a half-maximal effect (EC50) was put at 100 nM. Consider `N=C(NO)NCC[C@H](N)C(=O)O` [NOR-NOHA], for which, in data set [7], the half-life was found to be 0.25 h. In data set [8], this compound showed a bioavailability of 100%.

The record behind these values is ChEMBL document CHEMBL5260837, “Recent advances in small molecule based cancer immunotherapy” (Eur J Med Chem, 2018).
